Results as given in ChEMBL document CHEMBL5584352, “Targeted Discovery of a Natural ortho-Quinone Methide Precursor and Green Generation of Its Oligomers” (J Nat Prod, 2024).
Values after ≈ are worked out from the molar mass of the structure shown. Active and inactive are the calls of the source. No cut-off for these calls is given here.

Assays:
[1] = test system: HeLa; experiment: Cytotoxicity against human HeLa cells assessed as reduction in cell viability incubated for 24 hrs by MTT assay; format: functional, cell-based
[2] = test system: Staphylococcus aureus; experiment: Antibacterial activity against Staphylococcus aureus 209P assessed as reduction in bacterial growth incubated for 24 hrs by two fold serial dilution method; format: functional
[3] = test system: Escherichia coli; experiment: Antibacterial activity against Escherichia coli ATCC 0111 assessed as reduction in bacterial growth incubated for 24 hrs by two fold serial dilution method; format: functional, organism-based

Row | Compound | Activity [1] | Activity [2] | Activity [3] | IC50 [1] | MIC [2]
1 | Cc1cc(=O)c2c(O)c3c(O)cc(O)cc3cc2o1 | inactive | inactive | inactive | – | –
2 | CC(=O)[C@@H](C)c1cc(O)c(Cc2c(O)cc(O)c(Cc3c(O)cc([C@H](C)C(C)=O)c(C=O)c3O)c2C)c(O)c1C=O | inactive | inactive | inactive | – | –
3 | CC(=O)[C@@H](C)c1cc(O)c(Cc2c(C)c(C)c(O)c(C)c2O)c(O)c1C=O | inactive | inactive | inactive | – | –
4 | Cc1cc(O)c(C)c(O)c1C | inactive | inactive | inactive | – | –
5 | CC(=O)[C@@H](C)c1cc(O)c(Cc2c(O)cc(O)c3c(O)c4c(=O)cc(C)oc4cc23)c(O)c1C=O | inactive | inactive | inactive | – | –
6 | CC(=O)[C@@H](C)c1cc(O)c(Cc2c(C)cc(O)cc2O)c(O)c1C=O | inactive | inactive | inactive | – | –
7 | CC(=O)[C@@H](C)c1cc(O)c(CO)c(O)c1C=O | inactive | inactive | inactive | – | –
8 | CC(=O)[C@@H](C)c1cc(O)c(C)c(O)c1C=O | inactive | inactive | inactive | – | –
9 | CC(=O)[C@@H](C)c1cc(O)c(Cc2c3cc(O)cc(O)c3c(O)c3c(=O)cc(C)oc23)c(O)c1C=O | – | – | inactive | 12.4 µM | 32 mg/L (≈ 66.9 µM)
10 | Cc1c(C)c(C(=O)O)c(O)c(C)c1O | inactive | inactive | inactive | – | –
